Test results from patent publication US10370380B2, “Octahydropyrrolo[3,4-c]pyrrole derivatives and uses thereof” (Sunshine Lake Pharma Co., Ltd., priority 2015, dated 2019).
Where two headings read alike, the source gives them in different places.

Tests used:
[1] = Pharmacokinetic evaluation after intravenous or gavage administration to dogs; type: in vivo, Beagle dogs; conditions: beagle, dog, in vivo
Description: (§1) The compounds disclosed herein were administered in form of a saline solution containing 5% DMSO, 5% Kolliphor HS 15, 2% (2% HCl) and 88% Saline, or a solution containing 10% DMSO, 10% Kolliphor HS 15 and 80% physiological saline to the subject animals. For intravenous administration, the animals were administered with a dose of 1 mg/kg or 2 mg/kg, and vein blood samples (0.3 mL) were collected at the time points of 0.083, 0.25, 0.5, 1.0, 2.0, 4.0, 6.0, 8.0 and 24 h after drug administration; plasma samples were collected by centrifugation of the vein blood samples at 3000 rpm or 4000 rpm for 10 minutes, and stored at −20° C. or −70° C. For gavage administration, the animals were administered with a dose of 2.5 mg/kg or 5 mg/kg, and vein blood samples (0.3 mL) were collected at the time points of 0.25, 0.5, 1.0, 2.0, 4.0, 6.0, 8.0 and 24 h after drug administration; plasma samples were collected by centrifugation at 3000 rpm or 4000 rpm for 10 minutes, and stored at −20° C. or −70° C. The positive control is suvorexant.
(§2) The above plasma samples were analyzed by the LC-MS/MS system.

[2] = Pharmacokinetic evaluation after intravenous or gavage administration to rats; type: in vivo, SD rats; conditions: SD, rat, in vivo
Description: as §1, §2

humanized OX2 receptor = biological target: T1, humanized OX2 receptor (Homo sapiens, UniProt O43614); experiment: Antagonistic effect on humanized OX2 receptor, calcium flux by fluorescence detection in HEK-293 cells; type: cell-based
T1 construct: expressed in transfected cells; host or cells: HEK-293 cells
T1 sequence (O43614 1-444): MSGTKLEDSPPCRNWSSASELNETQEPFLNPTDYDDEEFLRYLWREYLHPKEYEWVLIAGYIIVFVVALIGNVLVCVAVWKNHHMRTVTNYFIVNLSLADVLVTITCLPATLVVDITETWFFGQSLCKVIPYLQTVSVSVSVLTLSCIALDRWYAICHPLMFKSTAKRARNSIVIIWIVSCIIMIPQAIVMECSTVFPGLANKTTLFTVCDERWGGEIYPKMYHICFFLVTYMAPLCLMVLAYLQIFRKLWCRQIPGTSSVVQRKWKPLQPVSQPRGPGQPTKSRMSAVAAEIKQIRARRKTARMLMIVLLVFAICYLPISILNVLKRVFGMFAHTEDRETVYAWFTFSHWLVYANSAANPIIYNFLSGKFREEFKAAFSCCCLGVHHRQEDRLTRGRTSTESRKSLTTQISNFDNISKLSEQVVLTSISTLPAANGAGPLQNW
Description: (§3) The capability of the compounds provided herein to antagonize humanized OX2 receptors expressed in HEK-293 cells was evaluated by the influence of the compounds disclosed herein on calcium flux in cells induced by agonist detected by a method of fluorescence detection. The cells were suspended in DMEM culture medium (invitrogen), and then added to a microplate with an average density of 3×10^4 cells/well. The Hank's balanced salt solution (pH 7.4) containing fluorescent probes (Fluo4 NW, Invitrogen), probenecid (invitrogen), 20 mM […] (invitrogen) was added to the above microplate, and then incubated together with the cells at 37° C. for 60 min, further incubated at 22° C. for 15 min. The microplate was placed in a microplate reader (CellLux, PerkinElmer), and to which was added the test compound or reference antagonist or Hank's balanced salt solution, 5 min later, 10 nM of orexin B or Hank's balanced salt solution (as a blank contrast) was added. […] The experimental results were expressed as an inhibition percentage relative to a control group (the group with 10 nM of orexin B).
The standard reference antagonist is JNJ10397049, and IC50 values were calculated by the dose-effect curve obtained from a series of concentrations of the experimental test.

humanized OX1 receptor = biological target: T2, humanized OX1 receptor (Homo sapiens, UniProt O43613); experiment: Antagonistic effect on humanized OX1 receptor, calcium flux by fluorescence detection in CHO cells; type: cell-based; conditions: CHO cells, calcium flux induced by 3 nM orexin A; read-out: OX1 IC50
T2 construct: expressed in transfected cells; host or cells: CHO (Chinese hamster ovary) cells
T2 sequence (O43613 1-425): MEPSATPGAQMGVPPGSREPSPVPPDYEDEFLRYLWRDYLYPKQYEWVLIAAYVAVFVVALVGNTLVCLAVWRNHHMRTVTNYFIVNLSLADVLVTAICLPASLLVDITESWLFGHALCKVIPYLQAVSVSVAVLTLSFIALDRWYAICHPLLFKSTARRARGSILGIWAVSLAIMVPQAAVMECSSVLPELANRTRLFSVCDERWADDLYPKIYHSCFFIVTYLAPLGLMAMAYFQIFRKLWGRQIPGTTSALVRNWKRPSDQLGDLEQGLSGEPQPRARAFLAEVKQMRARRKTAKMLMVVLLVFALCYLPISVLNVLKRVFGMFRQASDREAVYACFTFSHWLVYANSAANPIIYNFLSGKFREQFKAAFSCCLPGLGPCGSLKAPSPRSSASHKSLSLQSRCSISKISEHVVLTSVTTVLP
Description: as §3, with “OX1 receptor” for “OX2 receptors”, “Chinese hamster ovary (CHO)” for “HEK-293”, “2×10^4” for “3×10^4”, “3” for “10”, “A” for “B”, “A).” for “B).”
The standard reference antagonist is SB334867, and IC50 values were calculated by the dose-effect curve obtained from a series of concentrations of the experimental test.

[3] = HEK-293 cells, calcium flux induced by 10 nM orexin B, read-out: OX2 IC50

Work on `O=C(c1c(F)cccc1-n1nccn1)N1CC2CN(c3nc4cc(Cl)ccc4o3)CC2C1` (centres unmarked) [Example 3, (5-(5-chlorobenzo[d]oxazol-2-yl)hexahydropyrrolo[3,4-c]pyrrol-2(1H)-yl)(2-fluoro-6-(2H-1,2,3-triazol-2-yl)phenyl)methanone] yielded an AUC(0-inf) ([1]; iv, 1 mg/kg) of 8330 ng·h/mL, an AUC(0-t) ([1]; iv, 1 mg/kg) of 8320 ng·h/mL and a Cmax ([1]; iv, 1 mg/kg) of 3830 ng/mL. For the same compound, the MRT inf ([1]; iv, 1 mg/kg) was 175 min, the Vd ([1]; iv, 1 mg/kg) was 1.75 L/kg and the half-life ([1]; iv, 1 mg/kg) was 144 min. The AUC(0-t) ([1]; po, 5 mg/kg) was 35000 ng·h/mL, the Cmax ([1]; po, 5 mg/kg) was 5640 ng/mL and the F ([1]; po, 5 mg/kg) was 84.0%. The MRT inf ([1]; po, 5 mg/kg) was 275 min, the half-life ([1]; po, 5 mg/kg) was 176 min and the AUC(0-inf) ([2]; iv, 1 mg/kg) was 626 ng·h/mL. The AUC(0-t) ([2]; iv, 1 mg/kg) was 624 ng·h/mL, the Cmax ([2]; iv, 1 mg/kg) was 760 ng/mL and the MRT inf ([2]; iv, 1 mg/kg) was 45.5 min. The Vd ([2]; iv, 1 mg/kg) was 1.21 L/kg, the clearance ([2]; iv, 1 mg/kg) was 26.7 mL/min/kg and the half-life ([2]; iv, 1 mg/kg) was 34.6 min. For the same compound, the AUC(0-inf) ([2]; po, 2.5 mg/kg) was 907 ng·h/mL, the AUC(0-t) ([2]; po, 2.5 mg/kg) was 904 ng·h/mL and the Cmax ([2]; po, 2.5 mg/kg) was 567 ng/mL. It also gave an F ([2]; po, 2.5 mg/kg) of 57.9%, an MRT inf ([2]; po, 2.5 mg/kg) of 82.2 min and a half-life ([2]; po, 2.5 mg/kg) of 52.4 min. The IC50 (humanized OX2 receptor; [3]) was 147 nM.

In the case of `Cc1ccc(-n2nccn2)c(C(=O)N2CC3CN(c4ncc5cc(F)ccc5n4)CC3C2)c1` (centres unmarked) [Example 12, (5-(6-fluoroquinazolin-2-yl)hexahydropyrrolo[3,4-c]pyrrol-2(1H)-yl)(5-methyl-2-(2H-1,2,3-triazol-2-yl)phenyl)methanone], the AUC(0-inf) ([1]; iv, 1 mg/kg) is reported as 1140 ng·h/mL, the AUC(0-t) ([1]; iv, 1 mg/kg) is reported as 1130 ng·h/mL and the Cmax ([1]; iv, 1 mg/kg) is reported as 1390 ng/mL. It also gave an MRT inf ([1]; iv, 1 mg/kg) of 58.2 min, a Vd ([1]; iv, 1 mg/kg) of 0.85 L/kg and a clearance ([1]; iv, 1 mg/kg) of 14.7 mL/min/kg. For the same compound, the half-life ([1]; iv, 1 mg/kg) was 42 min, the AUC(0-inf) ([1]; po, 5 mg/kg) was 7880 ng·h/mL and the AUC(0-t) ([1]; po, 5 mg/kg) was 7310 ng·h/mL. It also gave a Cmax ([1]; po, 5 mg/kg) of 2310 ng/mL, an F ([1]; po, 5 mg/kg) of 129.4% and an MRT inf ([1]; po, 5 mg/kg) of 187 min. For the same compound, the half-life ([1]; po, 5 mg/kg) was 119 min, the AUC(0-inf) ([2]; iv, 1 mg/kg) was 460 ng·h/mL and the AUC(0-t) ([2]; iv, 1 mg/kg) was 460 ng·h/mL. It also gave a Cmax ([2]; iv, 1 mg/kg) of 749 ng/mL, an MRT inf ([2]; iv, 1 mg/kg) of 25.6 min and a Vd ([2]; iv, 1 mg/kg) of 0.987 L/kg. For the same compound, the clearance ([2]; iv, 1 mg/kg) was 40.1 mL/min/kg, the half-life ([2]; iv, 1 mg/kg) was 24.3 min and the AUC(0-inf) ([2]; po, 2.5 mg/kg) was 454 ng·h/mL. It also gave an AUC(0-t) ([2]; po, 2.5 mg/kg) of 452 ng·h/mL, a Cmax ([2]; po, 2.5 mg/kg) of 340 ng/mL and an F ([2]; po, 2.5 mg/kg) of 39.3%. It also gave an MRT inf ([2]; po, 2.5 mg/kg) of 76.8 min, a half-life ([2]; po, 2.5 mg/kg) of 50.2 min and an IC50 (humanized OX1 receptor) of 347 nM. It also gave an IC50 (humanized OX2 receptor; [3]) of 140 nM.

With `O=C(c1c(F)cccc1-n1nccn1)N1CC2CN(c3nc4cc(F)ccc4o3)CC2C1` (centres unmarked) [Example 6, (2-fluoro-6-(2H-1,2,3-triazol-2-yl)phenyl)(5-(5-fluorobenzo[d]oxazol-2-yl)hexahydropyrrolo[3,4-c]pyrrol-2(1H)-yl)methanone] the IC50 (humanized OX1 receptor) was 589 nM and the IC50 (humanized OX2 receptor; [3]) was 201 nM.

Compound `O=C(c1ccccc1-n1nccn1)N1CC2CN(c3nc4cc(F)ccc4o3)CC2C1` (centres unmarked) [Example 5, (2-(2H-1,2,3-triazol-2-yl)phenyl)(5-(5-fluorobenzo[d]oxazol-2-yl)hexahydropyrrolo[3,4-c]pyrrol-2(1H)-yl)methanone] has an IC50 (humanized OX1 receptor) of 642 nM and an IC50 (humanized OX2 receptor; [3]) of 235 nM.

Compound `Cc1ccc(-n2nccn2)c(C(=O)N2CC3CN(c4nc5cc(F)ccc5o4)CC3C2)c1` (centres unmarked) [Example 4, (5-(5-fluorobenzo[d]oxazol-2-yl)hexahydropyrrolo[3,4-c]pyrrol-2(1H)-yl)(5-methyl-2-(2H-1,2,3-triazol-2-yl)phenyl)methanone] has an IC50 (humanized OX1 receptor) of 611 nM and an IC50 (humanized OX2 receptor) of 342 nM.

Compound `O=C(c1ccccc1-n1nccn1)N1CC2CN(c3nc4cc(Cl)ccc4o3)CC2C1` (centres unmarked) [Example 2, (2-(2H-1,2,3-triazol-2-yl)phenyl)(5-(5-chlorobenzo[d]oxazol-2-yl)hexahydropyrrolo[3,4-c]pyrrol-2(1H)-yl)methanone] has an AUC(0-inf) ([2]; iv, 1 mg/kg) of 551 ng·h/mL, an AUC(0-t) ([2]; iv, 1 mg/kg) of 549 ng·h/mL and a Cmax ([2]; iv, 1 mg/kg) of 639 ng/mL. For the same compound, the MRT inf ([2]; iv, 1 mg/kg) was 47.2 min, the Vd ([2]; iv, 1 mg/kg) was 1.42 L/kg and the clearance ([2]; iv, 1 mg/kg) was 30.4 mL/min/kg. It also gave a half-life ([2]; iv, 1 mg/kg) of 36.1 min, an AUC(0-inf) ([2]; po, 2.5 mg/kg) of 790 ng·h/mL and an AUC(0-t) ([2]; po, 2.5 mg/kg) of 783 ng·h/mL. It also gave a Cmax ([2]; po, 2.5 mg/kg) of 485 ng/mL, an F ([2]; po, 2.5 mg/kg) of 57.3% and an MRT inf ([2]; po, 2.5 mg/kg) of 88.8 min. It also gave a half-life ([2]; po, 2.5 mg/kg) of 61.8 min and an IC50 (humanized OX2 receptor; [3]) of 221 nM.

With `O=C(c1ccccc1-n1nccn1)N1CC2CN(c3ncc4cc(F)ccc4n3)CC2C1` (centres unmarked) [Example 13, (2-(2H-1,2,3-triazol-2-yl)phenyl)(5-(6-fluoroquinazolin-2-yl)hexahydropyrrolo [3,4-c]pyrrol-2(1H)-yl)methanone] the AUC(0-inf) ([2]; iv, 1 mg/kg) was 865 ng·h/mL, the AUC(0-t) ([2]; iv, 1 mg/kg) was 864 ng·h/mL and the Cmax ([2]; iv, 1 mg/kg) was 1270 ng/mL. It also gave an MRT inf ([2]; iv, 1 mg/kg) of 32.9 min, a Vd ([2]; iv, 1 mg/kg) of 0.648 L/kg and a clearance ([2]; iv, 1 mg/kg) of 20.1 mL/min/kg. For the same compound, the half-life ([2]; iv, 1 mg/kg) was 30.1 min, the AUC(0-inf) ([2]; po, 2.5 mg/kg) was 752 ng·h/mL and the AUC(0-t) ([2]; po, 2.5 mg/kg) was 750 ng·h/mL. It also gave a Cmax ([2]; po, 2.5 mg/kg) of 537 ng/mL, an F ([2]; po, 2.5 mg/kg) of 34.7% and an MRT inf ([2]; po, 2.5 mg/kg) of 70.2 min. For the same compound, the half-life ([2]; po, 2.5 mg/kg) was 41 min.
